# Test system: 292921-168-R-J2-PDC complex spheroid viability
# Experiment: Anticancer human tumor 292921-168-R-J2-PDC patient-derived pancreatic carcinoma cell line growth inhibition
# Conditions: for IC50: curve of first compound; for viability, T/C: stronger effect = lower value
# In short: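 Drug combinations with the LSD1 inhibitor iadademstat tested on tumor cells co-cultured as spheroids with endothelial cells and mesenchymal stem cells. Concentrations descended in half-log increments from clinical Cmax or 10 microM.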
# [1] = second compound 0.1 µM, first compound 0.00949 µM
# [2] = second compound 0.1 µM, first compound 0.03 µM
# [3] = second compound 0.1 µM, first compound 0.0949 µM
# [4] = second compound 0.1 µM, first compound 0.3 µM
# [5] = second compound 0.1 µM, first compound 0.949 µM
# [6] = second compound 0.1 µM, first compound 3 µM
# [7] = second compound 0.316 µM, first compound 0.00949 µM
# [8] = second compound 0.316 µM, first compound 0.03 µM
# [9] = second compound 0.316 µM, first compound 0.0949 µM
# [10] = second compound 0.316 µM, first compound 0.3 µM
# [11] = second compound 0.316 µM, first compound 0.949 µM
# [12] = second compound 0.316 µM, first compound 3 µM
# [13] = second compound 1 µM, first compound 0.00949 µM
# [14] = second compound 1 µM, first compound 0.03 µM
# [15] = second compound 1 µM, first compound 0.0949 µM
# [16] = second compound 1 µM, first compound 0.3 µM
# [17] = second compound 1 µM, first compound 0.949 µM
# [18] = second compound 1 µM, first compound 3 µM
# [19] = second compound 3.16 µM, first compound 0.00949 µM
# [20] = second compound 3.16 µM, first compound 0.03 µM
# [21] = second compound 3.16 µM, first compound 0.0949 µM
# [22] = second compound 3.16 µM, first compound 0.3 µM
# [23] = second compound 3.16 µM, first compound 0.949 µM
# [24] = second compound 3.16 µM, first compound 3 µM
# [25] = second compound 10 µM, first compound 0.00949 µM
# [26] = second compound 10 µM, first compound 0.03 µM
# [27] = second compound 10 µM, first compound 0.0949 µM
# [28] = second compound 10 µM, first compound 0.3 µM
# [29] = second compound 10 µM, first compound 0.949 µM
# [30] = second compound 10 µM, first compound 3 µM
# 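Also: seven day compound exposure before luminescent viability read.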
# 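For viability, T/C in this document: 100% = DMSO vehicle control wells.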
SMILES,IC50 (second compound 0.1 µM) [nM],IC50 (second compound 0.316 µM) [nM],IC50 (second compound 1 µM) [nM],IC50 (second compound 3.16 µM) [nM],IC50 (second compound 10 µM) [nM],"viability, T/C [1] [%]","viability, T/C [2] [%]","viability, T/C [3] [%]","viability, T/C [4] [%]","viability, T/C [5] [%]","viability, T/C [6] [%]","viability, T/C [7] [%]","viability, T/C [8] [%]","viability, T/C [9] [%]","viability, T/C [10] [%]","viability, T/C [11] [%]","viability, T/C [12] [%]","viability, T/C [13] [%]","viability, T/C [14] [%]","viability, T/C [15] [%]",also measured
NS(=O)(=O)OCC1CC(n2ccc3c(NC4CCc5ccccc54)ncnc32)CC1O (stereo not given) + NC1CCC(NC2CC2c2ccccc2)CC1,16.8,16.7,16.1,15.3,12.8,83.8,15.6,3.97,1.88,1.9,2.04,83.4,15.3,4.75,3.14,2.25,1.88,77.6,17.4,4.76,"viability, T/C [16]: 2.36%; viability, T/C [17]: 2.12%; viability, T/C [18]: 1.71%; viability, T/C [19]: 72.7%; viability, T/C [20]: 18.4%; viability, T/C [21]: 4.6%; viability, T/C [22]: 2.14%; viability, T/C [23]: 1.54%; viability, T/C [24]: 1.63%; viability, T/C [25]: 62.3%; viability, T/C [26]: 15.6%; viability, T/C [27]: 4.83%; viability, T/C [28]: 2.29%; viability, T/C [29]: 1.42%; viability, T/C [30]: 0.82%"
Nc1ccccc1NC(=O)c1ccc(CNC(=O)OCc2cccnc2)cc1 + NC1CCC(NC2CC2c2ccccc2)CC1,28.7,15.1,< 9.49,13.1,< 9.49,61.3,48.3,34.6,20.5,3.31,0.22,53.1,45.2,34.6,18.8,3.86,0.24,50.8,39.9,33.4,"viability, T/C [16]: 20.6%; viability, T/C [17]: 3.16%; viability, T/C [18]: 0.22%; viability, T/C [19]: 52.9%; viability, T/C [20]: 43%; viability, T/C [21]: 27.2%; viability, T/C [22]: 16.3%; viability, T/C [23]: 2.26%; viability, T/C [24]: 0.38%; viability, T/C [25]: 42.5%; viability, T/C [26]: 39.5%; viability, T/C [27]: 26.8%; viability, T/C [28]: 14.2%; viability, T/C [29]: 0.79%; viability, T/C [30]: 0.3%"
O=C(C=Cc1cccc(S(=O)(=O)Nc2ccccc2)c1)NO + NC1CCC(NC2CC2c2ccccc2)CC1,< 9.49,< 9.49,< 9.49,< 9.49,< 9.49,44,36.2,28.6,17.3,0.45,0.08,48.7,34.8,31.6,19.1,0.37,0.38,43.8,35.6,30.9,"viability, T/C [16]: 15.2%; viability, T/C [17]: 0.34%; viability, T/C [18]: 0.09%; viability, T/C [19]: 40%; viability, T/C [20]: 33.4%; viability, T/C [21]: 24.4%; viability, T/C [22]: 12.4%; viability, T/C [23]: 0.19%; viability, T/C [24]: 0.08%; viability, T/C [25]: 42.2%; viability, T/C [26]: 32.4%; viability, T/C [27]: 22.9%; viability, T/C [28]: 7.61%; viability, T/C [29]: 0.12%; viability, T/C [30]: 0.13%"

# Source: PubChem BioAssay AID1918934 (Molecular Pharmacology Branch, DTP, NCI, 2023)
